The source of these data is ChEMBL document CHEMBL1158439, “Non-isotopic dual parameter competition assay suitable for high-throughput screening of histone deacetylases” (Bioorg Med Chem Lett, 2009).

Assay [1] in a line: Displacement of Atto700-HA from Bordetella / Alcaligenes strain FB188 […] by fluorescence anisotropy. On the set-up: species or system Alcaligenaceae bacterium FB188.
The nature of assay [2]: Inhibition of HDAC from RT extract.
The target in assay [3] is T1, Histone deacetylase-like amidohydrolase (Alcaligenes sp. (strain DSM 11172) (Bordetella sp. (strain FB188)), UniProt Q70I53).
T1 sequence (Q70I53 whole entry): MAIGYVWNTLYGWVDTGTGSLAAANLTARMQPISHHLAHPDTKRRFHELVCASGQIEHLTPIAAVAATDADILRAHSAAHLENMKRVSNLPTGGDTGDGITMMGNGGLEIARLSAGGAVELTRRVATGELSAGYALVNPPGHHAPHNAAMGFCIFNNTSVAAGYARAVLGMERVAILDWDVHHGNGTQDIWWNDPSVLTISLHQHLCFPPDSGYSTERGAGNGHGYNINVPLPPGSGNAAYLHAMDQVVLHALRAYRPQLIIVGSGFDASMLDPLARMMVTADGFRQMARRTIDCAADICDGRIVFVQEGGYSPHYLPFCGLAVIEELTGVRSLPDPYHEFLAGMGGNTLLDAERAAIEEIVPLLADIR
In words: Inhibition of Bordetella / Alcaligenes strain FB188 HDAH by fluorogenic enzyme assay. Set-up: species or system Alcaligenaceae bacterium FB188.

The target is the same in assay [4]. In words: Displacement of Atto700-HA from Bordetella / Alcaligenes strain FB188 HDAH by fluorescence anisotropy. Set-up: species or system Alcaligenaceae bacterium FB188. On the technique in general: In fluorescence polarisation assays a small probe gives low polarisation when free and higher when bound to something large.
Assay [5] can be described thus: Inhibition of Bordetella / Alcaligenes strain FB188 HDAC6 by fluorogenic enzyme assay.
A short description of assay [6]: Inhibition of Bordetella / Alcaligenes strain FB188 HDAC6 by fluorescence polarization assay. Set-up: species or system Alcaligenaceae bacterium FB188.
In assay [7] the target is T1, Histone deacetylase-like amidohydrolase (Alcaligenes sp. (strain DSM 11172) (Bordetella sp. (strain FB188)), UniProt Q70I53). Kind of assay: Inhibition of Bordetella / Alcaligenes strain FB188 HDAH by fluorimetric assay. Set-up: species or system Alcaligenaceae bacterium FB188.
The target is the same in assay [8]. Kind of assay: Binding affinity to Bordetella / Alcaligenes strain FB188 HDAC by FRET assay. Set-up: species or system Alcaligenaceae bacterium FB188.

Where only a bound is given, the exact number is not on record here.

With `CCC1=C(OC)C(=O)C(CCCCCCCCCCC(C)=O)=C(C)C1=O`, the IC50 (as a rule, the midpoint of a concentration-inhibition curve) is above 50000 nM in assay [1], above 50000 nM in assay [2] and 600 nM in assay [3]. The Ki (as a rule, the equilibrium dissociation constant of an inhibitor or competing ligand from its target) in assay [4] was determined as 1100 nM.
With `Nc1ccccc1NC(=O)c1ccc(CNC(=O)OCc2cccnc2)cc1` [ENTINOSTAT], the concentration for half-maximal inhibition (IC50) in assay [5] was above 10000 nM; in assay [2], 8800 nM; in assay [3], 118000 nM. The compound further registered an inhibition constant Ki in assay [4] above 100000 nM.
As to `O=C(CCCCCc1nc2cc3ccccc3cc2[nH]1)C(F)(F)F`, the IC50 in assay [1] stood at 70 nM; in assay [2] it was 600 nM; in assay [3], 600 nM. In addition, the affinity in assay [4] corresponds to a Ki of 1400 nM.
As to `CCC(=O)CCCCC[C@@H]1NC(=O)[C@H]2CCCCN2C(=O)[C@H]([C@@H](C)CC)NC(=O)[C@H](Cc2cn(OC)c3ccccc23)NC1=O` [APICIDIN], half-maximal inhibition in assay [6] (IC50) was put at 670 nM. For the same compound, the affinity in assay [4] corresponds to a Ki of 9200 nM.
Consider `CC(/C=C/C(=O)NO)=C\[C@@H](C)C(=O)c1ccc(N(C)C)cc1` [TRICHOSTATIN], for which the IC50 in assay [7] amounted to 1200 nM; in assay [6], 17 nM; in assay [2], 1 nM. Moreover, in assay [4], affinity was put at a Ki of 700 nM.
With `CCCCCC1OC1CC#CCCCCCCCC(=O)O` (configuration not stated), the half-maximal inhibitory concentration (IC50) in assay [1] is above 20000 nM; in assay [3] it was 9200 nM. Moreover, the inhibition constant (Ki) in assay [8] was 4300 nM; in assay [4], 20000 nM.
As to `CCCCCCCCCCCC[C@@H](C)O[C@@H]1O[C@H](CO)[C@@H](O)[C@H](O)[C@H]1O[C@@H]1O[C@H](COC(C)=O)[C@@H](O)[C@H](O)[C@H]1O`, the concentration for half-maximal inhibition (IC50) in assay [1] is above 50000 nM; in assay [2], above 50000 nM; in assay [3], 6200 nM. Besides, the Ki in assay [8] turned out to be 2000 nM; in assay [4] it was 10000 nM.
